Reference: paper PMC5545217 (Nature Communications, 2017)
Where two headings read alike, the source gives them in different places.

What was measured:
[1] = molecular target: T1, M. tuberculosis ATP-PRT (Mycobacterium tuberculosis, UniProt P9WMN1); experiment: biochemical
[2] = molecular target: T2, ATP-PRT (Mycobacterium tuberculosis, UniProt P9WMN1)
[3] = molecular target: T2, ATP-PRT; experiment: Competition saturation transfer difference (STD) NMR; type: binding; conditions: 20 μM ATP-PRT, 400 μM TIH, L-His 0-3000 μM, pH 8.0
Experimental: NMR spectra were recorded at 25 °C on a Bruker Avance-600 spectrometer equipped with a triple resonance cryo-probe and operating at a ^1H frequency of 600 MHz. […] Spectra with on-resonance pre-saturation of the enzyme at 0.8 ppm were recorded with a saturation time of 2 s. An off-resonance control spectrum was recorded with a saturation time of 2 s. Water suppression was achieved by excitation sculpting. Data processing and spectral subtractions were performed using Bruker TopSpin 3.2 software.

[4] = molecular target: T1, M. tuberculosis ATP-PRT; conditions: cited from earlier work
[5] = molecular target: the molecule itself; experiment: crystal structure

N[C@@H](Cc1cccs1)C(=O)O [TIH, 3-(2-thienyl)-L-alanine]
ATP-PRT activity restored ([1]; 400 µM L-His plus close to 4 mM TIH): 100%
V max ([1]; [TIH] 0.25 mM, L-His inhibition pattern, varying ATP): 0.28 ± 0.01 s⁻¹
V max ([1]; [TIH] 0.8 mM, L-His inhibition pattern, varying ATP): 0.38 ± 0.01 s⁻¹
V max ([1]; [TIH] 4 mM, L-His inhibition pattern, varying ATP): 0.76 ± 0.01 s⁻¹
Emax ([1]; read-out: ATP-PRT activity increased up to (maximal activation)): ≤ 433%
αATP ([1]; varying ATP, Eq. 4): 1.4 ± 0.2
βATP ([1]; varying ATP, Eq. 4): 4.9 ± 0.2
α (PRPP) ([1]; varying PRPP, Eq. 4): 1.1 ± 0.4
β (PRPP) ([1]; varying PRPP, Eq. 4): 4.9 ± 0.5
Drift time of main ATP-PRT form ([2]; pH 6.8, charge state +28): 44.2 ms
Drift time of main ATP-PRT form ([2]; pH 9.0, charge state +28): 44.1 ms

Nc1ncnc2c1ncn2[C@@H]1O[C@H](COP(=O)(O)OP(=O)(O)OP(=O)(O)O)[C@@H](O)[C@H]1O [ATP]
K m,ATP ([1]; [TIH] 0 mM, L-His inhibition pattern): 230 ± 30 µM
K m,ATP ([1]; [TIH] 0.25 mM, L-His inhibition pattern): 200 ± 20 µM
K m,ATP ([1]; [TIH] 0.8 mM, L-His inhibition pattern): 180 ± 20 µM
K m,ATP ([1]; [TIH] 4 mM, L-His inhibition pattern): 160 ± 20 µM
K m,ATP ([1]; activation experiment, unactivated reaction, varying ATP): 100 ± 10 µM

O=P(O)(O)OC[C@H]1O[C@H](OP(=O)(O)OP(=O)(O)O)[C@H](O)[C@@H]1O [PRPP, 5-phospho-α-D-ribose 1-diphosphate]
K m,PRPP ([1]; activation experiment, unactivated reaction, varying PRPP): 190 ± 30 µM

N[C@@H](Cc1c[nH]cn1)C(=O)O [L-His, L-histidine, reference compound]
IC50 [1]: 22 ± 4 µM
ATP-PRT activity at saturating L-His ([1]; 400 µM L-His (20-fold K i)): fully inhibited
Ki ([1]; L-His inhibition vs ATP, [TIH] 0 mM, read-out: K i,ATP): 20 ± 1 µM
Ki ([1]; linear noncompetitive inhibition vs. PRPP, no TIH, read-out: K i,PRPP): 16 ± 1 µM
Drift time of main ATP-PRT form ([2]; pH 6.8, charge state +28): 44.1 ms
Drift time of main ATP-PRT form ([2]; pH 9.0, charge state +28): 44.2 ms
Competition STD NMR outcome [3]: displacement of TIH by L-His
Hill number (n H) for L-His inhibition [4]: 1.5

B1: Mycobacterium tuberculosis ATP-phosphoribosyltransferase (enzyme)
chain: MLRVAVPNKGALSEPATEILAEAGYRRRTDSKDLTVIDPVNNVEFFFLRPKDIAIYVGSGELDFGITGRDLVCDSGAQVRERLALGFGSSSFRYAAPAGRNWTTADLAGMRIATAYPNLVRKDLATKGIEATVIRLDGAVEISVQLGVADAIADVVGSGRTLSQHDLVAFGEPLCDSEAVLIERAGTDGQDQTEARDQLVARVQGVVFGQQYLMLDYDCPRSALKKATAITPGLESPTIAPLADPDWVAIRALVPRRDVNGIMDELAAIGAKAILASDIRFCRF
notes: also called ATP-PRT; HisG
stoichiometry N [5]: 6
